From patent publication US10017501B2, “Benzimidazole derivatives as bromodomain inhibitors” (Gilead Sciences, Inc., priority 2013, dated 2018) come the findings set out here.

The structures appear in SMILES notation. Like-named read-outs stand apart in the source and are kept apart here.

The subject of experiment [1] is MT-4 cells. Briefly: MT-4 proliferation assay. The format is cell-based, human. The method, then: MT-4 Proliferation Assay:
Compounds were tested in a standardized high-throughput 384-well assay format. Each compound was serially diluted 3-fold in 100% DMSO in polypropylene 384-well plates using a Biomek FX Workstation, and 0.4 μL compound added to an assay plate containing 40 μL RPMI media. Compounds were arranged in a horizontal pattern, with 10 concentrations per compound, and 8 compounds added per plate. Due to low DMSO tolerability, the final DMSO concentration never exceeded 0.5% (v/v). Each assay plate contained 10 μM Puromycin and 0.5% DMSO in RPMI-1640 as positive and negative controls respectively. MT-4 cells (HTLV-1 transformed, human T lymphoblastoid cells, NIH Aids Reagent program) were added in volumes of 35 μL per well and 2,000 cells per well using a Biotek uFlow Workstation (Biotek, Winooski, Vt.), and the plates subsequently incubated for 5 days at 37° C. in an incubator set at 5% CO2 and 90% humidity.
After 5 days, 22 μL Cell Titer Glo (Promega) was added to the assay plates with a Biotek uFlow Workstation. Plates were subsequently placed on a Perkin Elmer Envision Plate Reader for 5 minutes before the luminescence signal was read.

Experiment [2] has as its system c-Myc produced in MM.1S cells. Briefly: c-Myc down regulation assay (MSD). The class given is cell-based. Conditions: 24 hrs. The method, then:
(§1) c-Myc Down Regulation and MM.1S Viability Assays:
An enzyme linked immunosorbent assay using the Meso Scale Diagnostic (MSD) technology was used to detect levels of c-Myc produced in MM.1S cells (ATCC). MM.1S cells were cultured in RPMI-1640 media (Corning), supplemented with 10% FBS (Hyclone), 1% penicillin-streptomycin (Cellgro), 2-mercaptoethanol (Gibco) and seeded onto 384-tissue culture treated filter binding plates (Millipore) at a density of 40K cells/well containing titrations of small molecule inhibitors or DMSO (0.4%) in a volume of […] of media. After an incubation time of 24 hrs, cells were lysed (1× lysis buffer (Thermo) supplemented with protease and phosophatase inhibitor cocktail (Thermo)) and the plates centrifuged (1000 rpm, 1 min) to capture c-Myc on MSD plates coated with a monoclonal c-Myc antibody (Origene). Assay wells were washed (3× Invitrogen wash buffer) and probed with a polyclonal c-Myc antibody (Abcam) and MSD detection antibody solution in order to detect levels of c-Myc on the MSD platform. c-Myc capture was reported in pg/ml based on a standard curve using recombinant c-Myc protein (Prosci). EC50 values were calculated from the fit of the dose-response curves to a four-parameter equation. All EC50 values represent geometric mean values of a minimum of four determinations. These assays generally produced results within 3-fold of the reported mean.

The subject of experiment [3] is MM.1S cells. Briefly: MM.1S viability assay (CellTiter Glo). The format is cell-based. To be noted: 72 hr, read-out: MM.1S Cell viability (EC50). The method, then:
as §1
For cell viability in the MM.1S cell line, cells were seeded onto 384-tissue culture treated plates (Greiner) at a density of 60K cells/well containing titrations of small molecule inhibitors or DMSO (0.2%). After 72 hr incubation cells were analyzed for cell viability by addition of CellTiter Glo (Promega) to the assay plates. After 15 min incubation at room temperature the signal from the viable cells was analyzed on an Envision plate reader (Perkin Elmer). EC50 values were calculated from the fit of the dose-response curves to a four-parameter equation. All EC50 values represent geometric mean values of a minimum of four determinations. These assays generally produced results within 3-fold of the reported mean.
On the technique in general: Cellular ATP, detected with luciferase, serves as a proxy for viable cell number.

Setting [4] is: Homo sapiens, MT4, 120 h, Table 2, 5 days, Cell Titer Glo, read-out: MT4 Assay (EC50).
The mark [5] stands for this setting: Homo sapiens, MT4, 120 h, Table 1, 5 days, Cell Titer Glo, read-out: MT4 Assay (EC50).

In the case of `Cc1noc(C)c1-c1cc(C(O)(c2ncccn2)c2ccc(F)cc2F)c2nc(C3CC3)[nH]c2c1` (stereo not drawn) [Compound 1020-257, (2-Cyclopropyl-6-(3,5-dimethylisoxazol-4-yl)-1H-benzo[d]imidazol-4-yl)(2,4-difluorophenyl)(pyrimidin-2-yl)methanol], the EC50 in experiment [1] (setting [4]) is 14.2 nM; in experiment [2] (Homo sapiens, MM1.S) it was 55.7 nM; in experiment [3] (Homo sapiens, MM1.S) it was 28.4 nM.

As to `Cc1noc(C)c1-c1cc(C(O)(c2cccnn2)C2CCCO2)c2nc(C3CC3)[nH]c2c1` (single isomer, unassigned) [Compound 1020-289, (2-cyclopropyl-6-(3,5-dimethylisoxazol-4-yl)-1H-benzo[d]imidazol-4-yl)(pyridazin-3-yl)(tetrahydrofuran-2-yl)methanol], the EC50 in experiment [1] (Table 2, 5 days, Cell Titer Glo, read-out: MT4 Assay (EC50)) was determined as 4.2 nM; in experiment [2], 5.7 nM; in experiment [3], 17.8 nM.

On to `Cc1noc(C)c1-c1cc(C(O)(c2ccccc2)c2cccnc2)c2nc(C3CC3)[nH]c2c1` (stereo not drawn) [Compound 1020-112, (2-cyclopropyl-6-(3,5-dimethylisoxazol-4-yl)-1H-benzo[d]imidazol-4-yl)(phenyl)(pyridin-3-yl)methanol], for which the EC50 came to 18.2 nM in experiment [1] (setting [4]); 56.7 nM in experiment [2] (Homo sapiens, MM1.S); 145 nM in experiment [3] (Homo sapiens, MM1.S).

Take `Cc1cccc(C(O)(c2cc(-c3c(C)noc3C)cc3[nH]c(C4CC4)nc23)C2CCCO2)n1` (racemic) [Compound 1020-114, (2-cyclopropyl-6-(3,5-dimethylisoxazol-4-yl)-1H-benzo[d]imidazol-4-yl)(6-methylpyridin-2-yl)(tetrahydrofuran-2-yl)methanol]: the EC50 in experiment [1] (Homo sapiens, MT4, 120 h, read-out: MT4 Assay (EC50, nM)) is 2.5 nM; in experiment [2] (Homo sapiens, MM1.S) it was 4.8 nM; in experiment [3] (Homo sapiens, MM1.S), 21.2 nM.

`Cc1noc(C)c1-c1cc(C(O)(c2ccccc2)c2ccccn2)c2nc(C3CC3)[nH]c2c1` (stereo not drawn) [Compound 1020-113, (2-cyclopropyl-6-(3,5-dimethylisoxazol-4-yl)-1H-benzo[d]imidazol-4-yl)(phenyl)(pyridin-2-yl)methanol]: the EC50 is 19.9 nM in experiment [1] (setting [4]); 63.1 nM in experiment [2] (Homo sapiens, MM1.S); 169 nM in experiment [3] (Homo sapiens, MM1.S).

Regarding `Cc1noc(C)c1-c1cc(C(O)(c2ccccn2)c2ccccn2)c2nc(C3CC3)[nH]c2c1F` [Compound 1020-224, (2-cyclopropyl-6-(3,5-dimethylisoxazol-4-yl)-7-fluoro-1H-benzo[d]imidazol-4-yl)di(pyridin-2-yl)methanol], the EC50 came out at 20.5 nM in experiment [1] (setting [4]); 104 nM in experiment [2] (Homo sapiens, MM1.S); 84 nM in experiment [3] (Homo sapiens, MM1.S).

As for `Cc1noc(C)c1-c1cc(C(O)(c2cccnn2)C2CCC(C)(C)O2)c2nc(C3CC3)[nH]c2c1` (single isomer, unassigned) [Compound 1020-298, (2-cyclopropyl-6-(3,5-dimethylisoxazol-4-yl)-1H-benzo[d]imidazol-4-yl)(5,5-dimethyltetrahydrofuran-2-yl)(pyridazin-3-yl)methanol], the EC50 was found to be 5.6 nM in experiment [1] (setting [4]); 15.3 nM in experiment [2] (Homo sapiens, MM1.S); 16.9 nM in experiment [3] (Homo sapiens, MM1.S).

`Cc1noc(C)c1-c1cc(NC2CCCC2)c2nc(C3CC3)[nH]c2c1` [Compound 1020-50, N-Cyclopentyl-2-cyclopropyl-6-(3,5-dimethylisoxazol-4-yl)-1H-benzo[d]imidazol-4-amine]: the EC50 in experiment [1] (setting [5]) is 353 nM.

`Cc1cnn(C)c1-c1cc(-c2c(C)noc2C)cc2nc(C3CC3)[nH]c12` [Compound 1020-12, 4-(2-Cyclopropyl-7-(1,4-dimethyl-1H-pyrazol-5-yl)-1H-benzo[d]imidazol-5-yl)-3,5-dimethylisoxazole]: in experiment [1] (setting [5]), the EC50 came out at 21.3 nM.

Consider `Cc1noc(C)c1-c1cc(C(C)c2ccc(F)cc2)c2[nH]c(C3CC3)nc2c1` (stereo not drawn) [Compound 1020-44, 4-(2-Cyclopropyl-4-(1-(4-fluorophenyl)ethyl)-1H-benzo[d]imidazol-6-yl)-3,5-dimethylisoxazole], for which the EC50 in experiment [1] (setting [5]) worked out at 86.1 nM.

`Cc1noc(C)c1-c1cc(C(O)(c2ccccn2)c2ccccn2)c2nc(C3CC3)[nH]c2c1` [Compound 1020-104, (2-cyclopropyl-6-(3,5-dimethylisoxazol-4-yl)-1H-benzo[d]imidazol-4-yl)di(pyridin-2-yl)methanol]: the EC50 in experiment [1] (setting [4]) was found to be 12.6 nM; in experiment [2] (Homo sapiens, MM1.S), 51.5 nM; in experiment [3] (Homo sapiens, MM1.S), 55.5 nM.

For the molecule `Cc1noc(C)c1-c1cc(C(O)(c2ccccn2)c2ncccn2)c2nc(C3CC3)[nH]c2c1` (single isomer, unassigned) [Compound 1020-239, (2-cyclopropyl-6-(3,5-dimethylisoxazol-4-yl)-1H-benzo[d]imidazol-4-yl)(pyridin-2-yl)(pyrimidin-2-yl)methanol], the EC50 in experiment [1] (setting [4]) worked out at 14 nM; in experiment [2] (Homo sapiens, MM1.S), 33.1 nM; in experiment [3] (Homo sapiens, MM1.S) it was 47.5 nM.

With `Cc1n[nH]c(C)c1-c1cc(-c2c(C)noc2C)cc2[nH]c(NCC3CC3)nc12` [Compound 1020-79, N-(Cyclopropylmethyl)-4-(3,5-dimethyl-1H-pyrazol-4-yl)-6-(3,5-dimethylisoxazol-4-yl)-1H-benzo[d]imidazol-2-amine], in experiment [1] (setting [5]), the EC50 turned out to be 33.8 nM.

For `Cc1noc(C)c1-c1cc(C(O)(c2nccs2)c2nccs2)c2nc(C3CC3)[nH]c2c1` [Compound 1020-103, (2-cyclopropyl-6-(3,5-dimethylisoxazol-4-yl)-1H-benzo[d]imidazol-4-yl)di(thiazol-2-yl)methanol], the EC50 in experiment [1] (setting [4]) amounted to 10 nM; in experiment [2] (Homo sapiens, MM1.S) it was 37.3 nM; in experiment [3] (Homo sapiens, MM1.S) it was 72.8 nM.

Regarding `COc1nc2c(-c3c(C)ccc4ncccc34)cc(-c3c(C)noc3C)cc2[nH]1` [Compound 1020-90, 4-(2-methoxy-4-(6-methylquinolin-5-yl)-1H-benzo[d]imidazol-6-yl)-3,5-dimethylisoxazole], the EC50 in experiment [1] (setting [5]) came to 25 nM.

Regarding `Cc1nc2cc(-c3c(C)noc3C)cc(-c3c(C)n[nH]c3C)c2[nH]1` [Compound 1020-77, 4-(7-(3,5-Dimethyl-1H-pyrazol-4-yl)-2-methyl-1H-benzo[d]imidazol-5-yl)-3,5-dimethylisoxazole], the EC50 in experiment [1] (setting [5]) came out at 39.4 nM.

For orientation: EC50 means the concentration that produces a half-maximal response.
